Measured values: patent US20230117034A1, “PYRAZOLOTRIAZINES” (Bayer Aktiengesellschaft, priority 2019, published 2023)

What was measured:
[1] = system: BRCA1 mRNA expression in MDA-MB-231 cells; assay: qRT-PCR assay: BRCA1 mRNA expression in MDA-MB-231; format: cell-based, human; settings: Homo sapiens, MDA-MB-231, Inhibition of BRCA1 mRNA expression in MDA-MB-231 cells; median; read-out: RTqPCR-MDA-MB-231, IC50, BRCA1 (median)
How it was run: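 GAPDH-normalised RT-qPCR measures the transcript after 24 h continuous compound treatment of cells seeded at 200,000/well one day earlier.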

[2] = system: CAL-120, human breast adenocarcinoma cells; assay: Proliferation assay CAL-120 (crystal violet, 4 days); format: cell-based; settings: Homo sapiens, CAL-120, 96 h, CAL-120 cells, median, read-out: Prolif-CAL-120, IC50-[mol/l] (median)
How it was run: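 Following a 24 h attachment in 10% fetal calf serum medium, cells receive test substance over 0.01-10 µmol/L for 4 days. Dye retained by fixed cells is eluted and read at 595 nm; cell number change is referenced to day-0 and untreated wells.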

[3] = biological target: T1, CDK12 (nuclear staining in CAL-120 cells) (Homo sapiens, UniProt Q9NYV4); assay: CDK12 nuclear protein level: immunofluorescence/high content analysis (CAL-120); format: cell-based; settings: for DC50: CAL-120 cells, 24 h, immunofluorescence, 50% reduction of nuclear CDK12 staining intensity, median, read-out: CDK12 degradation IF, DC50- [mol/l] (median); for (IC50 CDK12 high ATP) to (Degradation DC50 CDK12) ratio: ratio of IC50 CDK12 high ATP kinase assay to DC50 CDK12 degradation (IF, CAL-120)
T1 construct: endogenous in cells; host or cells: CAL-120 human breast cancer cells (DSMZ ACC 459)
How it was run: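 CAL-120 cells were treated with compound for 24 h at 37 °C, fixed with PFA and immunostained for CDK12. Nuclear CDK12 intensity was quantified by automated image analysis and normalized to DMSO and control. DC50 is the concentration giving 50% reduction of nuclear staining.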

[4] = biological target: T2, CYCLIN K (nuclear staining in CAL-120 cells) (Homo sapiens, UniProt O75909); assay: CYCLIN K nuclear protein level: immunofluorescence high content analysis (CAL-120); format: cell-based; settings: 24 h, 50% reduction of nuclear CCNK staining intensity, median, read-out: CYCLIN K degradation IF, DC50-[mol/l] (median)
T2 construct: endogenous in cells; host or cells: CAL-120 human breast cancer cells (DSMZ ACC 459)
How it was run: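 CAL-120 breast cancer cells treated in dose-response for 24 h at 37 °C, PFA-fixed and immunostained for cyclin K with Hoechst counterstain. Confocal imaging quantified nuclear intensity; DC50 is the concentration giving 50% reduction of nuclear CCNK staining, normalized to DMSO and control.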

T1 sequence (Q9NYV4 whole entry): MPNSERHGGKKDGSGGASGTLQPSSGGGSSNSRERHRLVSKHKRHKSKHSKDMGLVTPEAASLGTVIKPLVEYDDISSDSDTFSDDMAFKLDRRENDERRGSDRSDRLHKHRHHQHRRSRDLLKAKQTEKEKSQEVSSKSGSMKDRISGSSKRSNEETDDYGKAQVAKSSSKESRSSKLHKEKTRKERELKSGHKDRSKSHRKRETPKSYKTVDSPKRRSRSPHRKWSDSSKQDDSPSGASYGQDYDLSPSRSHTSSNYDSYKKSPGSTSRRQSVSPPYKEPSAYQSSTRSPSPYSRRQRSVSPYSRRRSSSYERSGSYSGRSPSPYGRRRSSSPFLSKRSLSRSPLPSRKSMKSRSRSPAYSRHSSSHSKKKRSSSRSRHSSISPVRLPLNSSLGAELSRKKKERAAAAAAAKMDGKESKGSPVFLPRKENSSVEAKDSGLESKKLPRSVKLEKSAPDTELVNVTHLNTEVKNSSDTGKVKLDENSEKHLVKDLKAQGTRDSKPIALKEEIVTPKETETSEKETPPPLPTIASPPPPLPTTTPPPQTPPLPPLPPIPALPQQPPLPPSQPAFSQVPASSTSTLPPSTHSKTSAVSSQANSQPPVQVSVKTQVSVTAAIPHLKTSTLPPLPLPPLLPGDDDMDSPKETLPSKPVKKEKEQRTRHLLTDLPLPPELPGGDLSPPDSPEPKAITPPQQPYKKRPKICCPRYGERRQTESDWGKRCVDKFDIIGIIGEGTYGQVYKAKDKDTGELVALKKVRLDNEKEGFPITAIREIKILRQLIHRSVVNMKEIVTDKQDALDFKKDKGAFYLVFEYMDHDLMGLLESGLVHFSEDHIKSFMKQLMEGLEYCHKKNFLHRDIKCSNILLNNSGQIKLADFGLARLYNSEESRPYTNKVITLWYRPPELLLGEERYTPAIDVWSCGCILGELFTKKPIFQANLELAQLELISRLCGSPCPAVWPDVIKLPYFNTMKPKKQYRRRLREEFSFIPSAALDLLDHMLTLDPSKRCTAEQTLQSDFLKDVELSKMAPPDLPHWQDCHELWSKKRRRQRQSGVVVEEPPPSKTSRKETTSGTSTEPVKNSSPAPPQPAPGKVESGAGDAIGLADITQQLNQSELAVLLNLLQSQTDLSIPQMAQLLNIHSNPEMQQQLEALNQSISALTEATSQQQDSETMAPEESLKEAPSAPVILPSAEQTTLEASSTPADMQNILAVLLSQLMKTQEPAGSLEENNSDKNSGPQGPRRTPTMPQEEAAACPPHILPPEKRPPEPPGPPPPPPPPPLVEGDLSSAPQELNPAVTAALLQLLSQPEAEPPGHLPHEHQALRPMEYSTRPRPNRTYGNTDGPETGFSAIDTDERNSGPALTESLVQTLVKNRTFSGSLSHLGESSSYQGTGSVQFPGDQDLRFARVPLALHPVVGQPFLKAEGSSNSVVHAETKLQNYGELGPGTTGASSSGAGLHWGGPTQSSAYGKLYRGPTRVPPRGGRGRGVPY
T1 sequence (O75909 whole entry partner): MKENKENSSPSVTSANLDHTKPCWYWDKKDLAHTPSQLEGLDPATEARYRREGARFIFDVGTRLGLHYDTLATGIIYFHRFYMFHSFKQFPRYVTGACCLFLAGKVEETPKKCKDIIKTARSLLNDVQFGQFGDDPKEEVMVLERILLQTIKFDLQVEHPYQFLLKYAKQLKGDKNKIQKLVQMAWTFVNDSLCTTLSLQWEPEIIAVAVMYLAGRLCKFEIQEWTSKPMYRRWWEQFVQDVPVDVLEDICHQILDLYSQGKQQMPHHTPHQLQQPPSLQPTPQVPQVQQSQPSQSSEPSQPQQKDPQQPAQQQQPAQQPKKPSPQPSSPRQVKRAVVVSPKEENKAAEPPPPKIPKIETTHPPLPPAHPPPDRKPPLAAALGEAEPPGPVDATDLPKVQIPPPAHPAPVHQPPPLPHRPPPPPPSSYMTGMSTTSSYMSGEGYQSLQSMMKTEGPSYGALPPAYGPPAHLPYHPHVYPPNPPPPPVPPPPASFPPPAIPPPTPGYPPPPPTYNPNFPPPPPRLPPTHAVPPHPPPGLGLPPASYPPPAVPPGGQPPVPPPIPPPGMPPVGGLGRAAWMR
T2 sequence (O75909 whole entry): as the sequence (O75909 whole entry partner) above
T2 sequence (Q9NYV4 whole entry partner): as the sequence (Q9NYV4 whole entry) above

IC50 [1] [nM] | IC50 [2] [nM] | DC50 [3] [nM] | (IC50 CDK12 high ATP) to (Degradation DC50 CDK12) ratio [3] | DC50 [4] [nM] | Structure (SMILES)
94.2 | 120 | 20.7 | >276 | 7.03 | Brc1cnn2c(NCc3nc4ccccc4[nH]3)nc(N3CC4(COC4)C3)nc12 [Example 48, N-[(1H-benzimidazol-2-yl)methyl]-8-bromo-2-(2-oxa-6-azaspiro[3.3]heptan-6-yl)pyrazolo[1,5-a][1,3,5]triazin-4-amine]
69.2 | 44 | 41.7 | 147 | 5.34 | Brc1cnn2c(NCc3nnc(-c4ccccc4)[nH]3)nc(N3CCCCC3)nc12 [Example 49, 8-bromo-N-[(5-phenyl-4H-1,2,4-triazol-3-yl)methyl]-2-(piperidin-1-yl)pyrazolo[1,5-a][1,3,5]triazin-4-amine]
18.2 | 29.5 | 12.5 | 224 | 4.22 | COc1cccc(-c2nnc(CNc3nc(N4CCOCC4)nc4c(Br)cnn34)[nH]2)c1 [Example 50, 8-bromo-N-{[5-(3-methoxyphenyl)-4H-1,2,4-triazol-3-yl]methyl}-2-(morpholin-4-yl)pyrazolo[1,5-a][1,3,5]triazin-4-amine]
5.8 | 9.43 | 7.81 | 222 | 3.15 | Clc1cccc(-c2nnc(CNc3nc(N4CCOCC4)nc4c(Br)cnn34)[nH]2)c1 [Example 51, 8-bromo-N-{[5-(3-chlorophenyl)-4H-1,2,4-triazol-3-yl]methyl}-2-(morpholin-4-yl)pyrazolo[1,5-a][1,3,5]triazin-4-amine]
26 | 23.3 | 20.5 | 80 | 2.83 | FC(F)(F)c1cccc(-c2nnc(CNc3nc(N4CCOCC4)nc4c(Br)cnn34)[nH]2)c1 [Example 52, 8-bromo-2-(morpholin-4-yl)-N-({5-[3-(trifluoromethyl)phenyl]-4H-1,2,4-triazol-3-yl}methyl)pyrazolo[1,5-a][1,3,5]triazin-4-amine]
77.1 | 106 | 47.2 | 43 | 9.25 | Brc1cnn2c(NCc3nnc(-c4cccnc4)[nH]3)nc(N3CCOCC3)nc12 [Example 53, 8-bromo-2-(morpholin-4-yl)-N-{[5-(pyridin-3-yl)-4H-1,2,4-triazol-3-yl]methyl}pyrazolo[1,5-a][1,3,5]triazin-4-amine]
66.2 | 53.8 | 37.8 | 150 | 10.2 | Brc1cnn2c(NCc3nnc(-c4ccccn4)[nH]3)nc(N3CCOCC3)nc12 [Example 54, 8-bromo-2-(morpholin-4-yl)-N-{[5-(pyridin-2-yl)-4H-1,2,4-triazol-3-yl]methyl}pyrazolo[1,5-a][1,3,5]triazin-4-amine]
4.76 | 6.28 | 3.43 | 224 | 0.843 | N#Cc1cccc(-c2nnc(CNc3nc(N4CCOCC4)nc4c(Br)cnn34)[nH]2)c1 [Example 55, 3-[5-({[8-bromo-2-(morpholin-4-yl)pyrazolo[1,5-a][1,3,5]triazin-4-yl]amino}methyl)-4H-1,2,4-triazol-3-yl]benzonitrile]
21.8 | 17.3 | 15.1 | 352 | 2.19 | C[C@@H]1COCCN1c1nc(NCc2nc3ccccc3[nH]2)n2ncc(Br)c2n1 [Example 56, N-[(1H-benzimidazol-2-yl)methyl]-8-bromo-2-[(3R)-3-methylmorpholin-4-yl]pyrazolo[1,5-a][1,3,5]triazin-4-amine]
